Where two headings read alike, the source gives them in different places.
Tests used:
Assay type in all cases: in vivo
ICR mice = assay: Mouse forced swimming experiment; conditions: later 4 min of 6 min
Protocol: Experimental principle: The principle of Mouse Forced Swimming Test (FST) is to allow the mouse to swim in a limited space from which it can not escape, thus inducing animal to non-movement state which reflects the animal's desperate behavior.
Experimental animals: ICR mice, 20-28 g, both male and female
Sample treatment: The test compounds were ground with 1% CMC (sodium carboxymethyl cellulose) aqueous solution to prepare a homogeneous solution. In vivo dose was 5 mg/kg, 10 mg/kg and 20 mg/kg, the compound was oral administered at 0.1 ml/10 g volume/body weight. Positive control drugs (amitriptyline and fluoxetine) were dissolved with 0.9% saline, in vivo dose was 10 mg/kg, administered by intraperitoneal injection at 0.1 ml/10 g volume/body weight. (Note: the mice were fasted for 8 h and drinked water ad libitum before the compound was given.)
Experimental Methods: mice were grouped randomly. […] On the second day of the test, the mice were orally administered the compound. After 1 hour (0.5 hours after intraperitoneal injection), the mice were then put in water to record the immobility time in the later 4 min of 6 min.

[1] = Determination of brain tissue content in rats; conditions: rat
Protocol: Six healthy rats weighing 150-200 g were randomly divided into […] (n=3). The rats were given 10 mL/kg by gavage and intravenous injection, and the dose of gavage was 20 mg/kg, and the dose of intravenous administration was 10 mg/kg. The drug was formulated in DMSO/Tween 80/saline (5:5:90, v/v/v). The rats were fasted for 12 h before testing, and drinked water ad libitum. 2 h after administration, all rats ate together. […]
A physiological saline solution was added (1:10, weight:volume) and the mixture was sufficiently homogenized to form a homogenate. 100 uL homogenate was taken, and 300 uL dichloromethane:methanol (3:2) solution was added, mixed uniformly through vortex oscillation and centrifugated at 14000 rpm for 10 min. The clear liquor was taken. The sample was dried with nitrogen and stored in the 4° C. refrigerator.

mice = assay: Head twitches test (5-HTP induced); conditions: 20 mg/kg, intraperitoneal, in 6 min, FIG. 2
From the text: Experimental principle: Model Head Thrust Test (HTT) is first raised by Corne et al. in 1963, head twitches syndrome caused by 5-HT receptor excitement may be mediated through the 5-HT2 receptor. The head twitches behavior induced by 5-HTP in mice is more sensitive to antidepressants with different action mechanisms, such as citalopram, fluvoxamine and other 5-HT retake inhibitors, desipramine, maprotiline, nomifensine and other NA retake inhibitors and imipramine acting on both 5-HT and NA system.
Experimental method: 20-24 g male mice were selected. 3 h before the test, 100 mg/kg pargyline was intraperitoneal injected and then intraperitoneal injected with test drugs or saline. 5-HTP (5 mg/kg, ip) was injected 30 min later. After 10 min, the observation was started and the number of mice head twitches in 6 min was recorded. The numbers of the head twitches of experimental group and the saline control group were compared.

With `Cc1nc(C#Cc2ccc(F)c(C(=O)Nc3cccnc3)c2)cs1` [ZD043] the “immobility time (%) Mean ± SEM” value (ICR mice; 5 mg/kg oral) was “reduced”, the “immobility time (%) Mean ± SEM” value (ICR mice; 5 mg/kg oral, listed as D043) was 74.97 ± 18.79% and the “immobility time (%) Mean ± SEM” value (ICR mice; 10 mg/kg oral) was “reduced”. For the same molecule, the “immobility time (%) Mean ± SEM” value (ICR mice; 10 mg/kg oral, listed as D043) was 66.01 ± 21.08%, the “immobility time (%) Mean ± SEM” value (ICR mice; 20 mg/kg oral) was “reduced” and the “immobility time (%) Mean ± SEM” value (ICR mice; 20 mg/kg oral, listed as D043) was 46.50 ± 13.03%. For the same molecule, the concentration at 0.25 h ([1]; cerebrospinal fluid, sampling time 0.25 h, read-out: Cerebrospinal fluid) was 25.5 ng/mL, the concentration at 1 h ([1]; cerebrospinal fluid, sampling time 1 h, read-out: Cerebrospinal fluid) was 21.3 ng/mL and the concentration at 3 h ([1]; cerebrospinal fluid, sampling time 3 h, read-out: Cerebrospinal fluid) was 7.99 ng/mL. It also gave a concentration at 0.25 h ([1]; plasma, sampling time 0.25 h, read-out: Plasma) of 1240 ng/mL, a concentration at 1 h ([1]; plasma, sampling time 1 h, read-out: Plasma) of 1130 ng/mL and a concentration at 3 h ([1]; plasma, sampling time 3 h, read-out: Plasma) of 358 ng/mL. For the same molecule, the “drug concentration ratio in the brain and plasma” value ([1]; after administration) was 1/2, the B/P ([1]; sampling time 0.25 h) was 1/2 and the concentration at 0.25 h ([1]; sampling time 0.25 h, read-out: brain) was 589 ng/g. For the same molecule, the B/P ([1]; sampling time 1 h) was 1/2, the Csf/P ([1]; sampling time 1 h) was 1/53 and the concentration at 1 h ([1]; sampling time 1 h, read-out: brain) was 559 ng/g. The Csf/P ([1]; sampling time 3 h) was 1/45, the concentration at 3 h ([1]; sampling time 3 h, read-out: brain) was 164 ng/g and the “number of head twitches” value (mice) was “increase”.

Source: patent US10618900B2, “5-aromatic alkynyl substituted benzamide compound and preparation method, pharmaceutical composition, and use thereof” (SHANGHAI INSTITUTE OF MATERIA MEDICA, CHINESE ACADEMY OF …, priority 2015, dated 2020)
